Laboratory results reported in patent US5126227A, “High contrast photographic elements containing ballasted hydrophobic isothioureas” (priority 1990, dated 1992).

Assay: Solubility stated in words
Format: physicochemical

Structure (SMILES) | solubility (in words)
N=C(N)SCCS(=O)(=O)O [Comparative test E] | highly soluble
N=C(N)SCCCS(=O)(=O)O [Comparative test F] | less soluble
N=C(N)SCCCCS(=O)(=O)O [Comparative test G] | less soluble
CC(CCSC(=N)N)S(=O)(=O)O (stereo not shown) [Comparative test H] | less soluble
